A short description of data set [1]: Inhibition of GP-pNA conversion to pNA by 2% bovine serum. The format is biochemical. The note with it: 2% BS in PBS.
Another data set has as its target T1, purified CD26 (Homo sapiens, UniProt P27487).
T1 construct: made in house
In words: Conversion of peptide prodrugs to parent compound by purified CD26 (HPLC). The format is biochemical. The note with it: purified CD26; within 60 min. The procedure, abridged:
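Peptide prodrugs of lipophilic nucleoside analogues were incubated with purified human CD26 at a final concentration of 1.5 milliUnits in PBS at pH 7.5, 37° C, in a 400 μl reaction started by enzyme addition. Samples were mixed with cold methanol to precipitate protein, centrifuged, and the supernatants analysed by reverse-phase HPLC to quantify conversion to the parent compound.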

A short description of data set [2]: Conversion of prodrugs to parent compound by bovine serum diluted in PBS. The format is in vitro ADME. The note with it: 2% BS in PBS. As for the experimental part:
(§1) Human and bovine serum were incubated for 3 hr, 6 hr and/or 24 hr at 37° C. in the presence of 50 μM CAM-405. The sera were diluted in PBS at a final concentration of 0.5, 1, 2.5 or 5%. […] The longer the incubation time, and the higher the serum concentration used, the faster the conversion of CAM-405 to CAM-212 occurred (FIG. 4). As also noted for CD26, HS- and BS-catalysed reaction slowed down in function of time, and was not linearly proportional with serum concentration (FIG. 4). These findings provide again evidence for a pronounced feed-back inhibition of dipeptidyl-peptidase activity in human and bovine serum by the released Val-Pro dipeptide. HS was more efficient in converting CAM-405 to CAM-212 than BS (FIG. 4). Since 1% HS is able to hydrolyse ˜20% of 50 μM CAM-405 within 3 hrs of incubation, it could be calculated that undiluted serum would have been able to convert this prodrug amount to its parent compound at a hundred fold higher speed, that is, within 1.8 min, provided that no feed-back inhibition would have occurred (as expected in the intact organism where release of Pro-Val would immediately result in disappearance from the plasma due to several mechanisms including organ uptake, renal excretion, etc.).
(§2) Ten percent BS or HS converted 40 to 70% of PI-2 to PI-1 in one hour (FIG. 10). Two percent BS and HS converted PI-2 to PI-1 by 8% and 25%, respectively. After 4 hrs, 35% and 95% of compound was hydrolyzed by BS and HS, respectively (FIG. 11).
(§3) The TSAO derivatives depicted in FIG. 1 can be synthesised as described below. GlyPro-pNA (GP-pNA), Diprotin A and Val-Pro were purchased from Sigma-Aldrich (Bornem, Belgium). CD26 was purified as described before [De Meester et al. J. Immunol. Methods (1996), 189: 99-105]. Foetal bovine serum (FBS) was obtained from Integro (Dieren, The Netherlands). Human serum represented a pooled serum that was derived from 10 healthy volunteers (blood donors). Human lymphocyte CEM cells were derived from the ATCC (Rockville, Md.).

The nature of data set [3]: Inhibition of GP-pNA conversion to pNA by 2% human serum. The format is biochemical. The note with it: 2% HS in PBS.
For the next data set, the target named is T2, CD26 (Homo sapiens, UniProt P27487).
T2 construct: made in house
The data set can be described thus: Inhibition of CD26-catalysed conversion of GP-pNA to GP+pNA (pNA release, absorption at 400 nm). The format is biochemical. The note with it: 50 μM GP-pNA. How it is done:
The CD26 catalytic reaction was measured by recording the increase of absorption caused by pNA release at 400 nm.
To reveal whether CD26 recognizes such synthetic di/tripeptide derivatives of lipophilic nucleoside analogues as a substrate, 50 μM CAM-405 or CAM-431 was exposed to 5.7 mUnits of purified CD26, and the conversion of CAM-405 or CAM-431 to respectively CAM-212 or CAM-403 (Val-NAP-TSAO) was recorded in function of incubation time by HPLC analysis. […] The inhibitory activity of any dipeptide can be evaluated by the above mentioned assay.

Data set [4] is described as follows: Conversion of prodrugs to parent compound by human serum diluted in PBS. The format is in vitro ADME. The note with it: 2% HS in PBS. As for the experimental part: as §1
Only a very limited amount of NAP-TSAO (but not D-Pro-NAP-TSAO) had been detected (FIG. 6).
as §2, §3

Where [5] appears, read: time not restated (one hour in the sentence before).

The structures appear in SMILES notation.

T2 sequence (P27487 whole entry): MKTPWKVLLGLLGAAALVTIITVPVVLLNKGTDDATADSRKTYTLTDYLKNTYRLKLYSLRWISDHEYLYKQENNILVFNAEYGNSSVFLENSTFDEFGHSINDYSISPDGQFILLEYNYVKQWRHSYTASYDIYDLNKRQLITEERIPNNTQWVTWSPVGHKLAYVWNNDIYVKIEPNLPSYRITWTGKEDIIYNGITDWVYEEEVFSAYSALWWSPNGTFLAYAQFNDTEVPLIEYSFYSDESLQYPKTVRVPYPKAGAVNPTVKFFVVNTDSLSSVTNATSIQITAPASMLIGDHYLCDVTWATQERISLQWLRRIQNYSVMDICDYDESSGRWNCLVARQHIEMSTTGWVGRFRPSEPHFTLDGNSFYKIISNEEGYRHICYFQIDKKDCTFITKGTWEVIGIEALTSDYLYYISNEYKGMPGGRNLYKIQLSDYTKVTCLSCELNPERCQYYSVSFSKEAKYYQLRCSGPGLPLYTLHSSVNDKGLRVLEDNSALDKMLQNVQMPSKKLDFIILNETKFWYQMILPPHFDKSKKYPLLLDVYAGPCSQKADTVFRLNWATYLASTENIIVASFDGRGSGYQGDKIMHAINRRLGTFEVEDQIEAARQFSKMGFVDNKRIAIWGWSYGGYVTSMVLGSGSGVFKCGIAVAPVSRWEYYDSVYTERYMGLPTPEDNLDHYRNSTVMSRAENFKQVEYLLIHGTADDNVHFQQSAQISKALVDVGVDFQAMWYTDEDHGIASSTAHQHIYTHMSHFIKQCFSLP
T1 sequence (P27487 whole entry): as above

As for `CC(C)CN(C[C@@H](O)[C@H](Cc1ccccc1)NC(=O)O[C@H]1CO[C@H]2OCC[C@H]21)S(=O)(=O)c1ccc(CNC(=O)[C@@H]2CCCN2C(=O)[C@@H](N)C(C)C)cc1` [Val-Pro-PI 1], the “Inhibition of GP-pNA conversion to pNA by two percent BS, in words” value in data set [1] is on record as “even more efficiently inhibited”. For the same molecule, on purified CD26, the “Conversion of Val-Pro-PI 1 (PI-2) to PI 1 by purified CD26 within 60 min, in words” value is given as “completely converted”. In addition, in data set [2] (4 hrs), the “Compound hydrolyzed by BS after 4 hrs” value is 35%. Further, in data set [2] (setting [5]), the “Conversion to PI 1 by two percent BS” value was 8%. Also, the “Inhibition of HS-catalysed GP-pNA conversion to pNA, in words” value in data set [3] is given as “competitively inhibited”. In addition, the “Inhibition of release of pNA from GP-pNA at 20 μM, in words” value at CD26 (20 μM) was “could inhibit”. At CD26 (100 μM), the “Competition with GP-pNA for CD26 at 100 μM, in words” value is reported as “efficiently competed”. For the same molecule, in data set [4] (4 hrs), the “Compound hydrolyzed by HS after 4 hrs” value was 95%. Further, the “Conversion to PI 1 by two percent HS” value in data set [4] (setting [5]) came to 25%.
